In general, IC50 refers to the concentration that gives 50% inhibition. As usually defined, the inhibition is the drop in the measured response relative to a control, in per cent.

For assay [1], the target named is T1, Adenosylhomocysteinase (Rattus norvegicus, UniProt P10760).
T1 sequence (P10760 whole entry): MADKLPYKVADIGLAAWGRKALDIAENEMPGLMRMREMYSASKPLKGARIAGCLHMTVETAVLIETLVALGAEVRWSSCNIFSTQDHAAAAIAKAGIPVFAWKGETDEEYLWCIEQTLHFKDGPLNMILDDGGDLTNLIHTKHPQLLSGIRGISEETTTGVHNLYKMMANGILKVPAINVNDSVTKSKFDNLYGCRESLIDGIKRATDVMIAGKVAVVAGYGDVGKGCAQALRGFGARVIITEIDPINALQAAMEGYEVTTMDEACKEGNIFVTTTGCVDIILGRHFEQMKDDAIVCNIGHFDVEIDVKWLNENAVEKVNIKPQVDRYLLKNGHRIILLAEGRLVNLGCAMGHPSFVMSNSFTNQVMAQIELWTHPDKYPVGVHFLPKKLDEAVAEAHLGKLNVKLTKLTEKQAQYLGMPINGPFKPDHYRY
Kind of assay: Inhibition of S-adenosyl-L-homocysteine hydrolase in intact rat hepatocytes. The format is cell-based, Hepatocyte.

Assay [2] concerns the target T2, Adenosylhomocysteinase (Homo sapiens, UniProt P23526). Description: Inhibition of S-adenosyl-L-homocysteine hydrolase after 10 mins by scintillation counting.
Target sequence in this assay (P23526 whole entry): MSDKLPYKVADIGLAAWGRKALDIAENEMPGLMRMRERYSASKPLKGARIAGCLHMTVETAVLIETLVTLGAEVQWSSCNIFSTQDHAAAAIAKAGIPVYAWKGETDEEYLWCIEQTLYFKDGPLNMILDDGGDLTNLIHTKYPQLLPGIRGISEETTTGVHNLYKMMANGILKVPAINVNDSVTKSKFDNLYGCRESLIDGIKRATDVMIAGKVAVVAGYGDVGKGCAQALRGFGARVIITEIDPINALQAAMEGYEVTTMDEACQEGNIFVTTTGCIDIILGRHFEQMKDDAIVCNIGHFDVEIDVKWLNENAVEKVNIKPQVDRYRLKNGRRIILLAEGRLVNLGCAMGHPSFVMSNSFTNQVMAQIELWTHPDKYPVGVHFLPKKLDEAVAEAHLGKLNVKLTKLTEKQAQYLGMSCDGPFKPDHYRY
Assay [3] addresses Adenosylhomocysteinase (Plasmodium falciparum 3D7, UniProt P50250). Description: Inhibition of Plasmodium falciparum S-adenosyl-homocysteine hydrolase.
Assay [4] addresses T2, Adenosylhomocysteinase. Kind of assay: Inhibition of S-adenosyl-L-homocysteine hydrolase at 2 uM after 10 mins by scintillation counting.
Target sequence in this assay (P23526 2-432 limits assumed): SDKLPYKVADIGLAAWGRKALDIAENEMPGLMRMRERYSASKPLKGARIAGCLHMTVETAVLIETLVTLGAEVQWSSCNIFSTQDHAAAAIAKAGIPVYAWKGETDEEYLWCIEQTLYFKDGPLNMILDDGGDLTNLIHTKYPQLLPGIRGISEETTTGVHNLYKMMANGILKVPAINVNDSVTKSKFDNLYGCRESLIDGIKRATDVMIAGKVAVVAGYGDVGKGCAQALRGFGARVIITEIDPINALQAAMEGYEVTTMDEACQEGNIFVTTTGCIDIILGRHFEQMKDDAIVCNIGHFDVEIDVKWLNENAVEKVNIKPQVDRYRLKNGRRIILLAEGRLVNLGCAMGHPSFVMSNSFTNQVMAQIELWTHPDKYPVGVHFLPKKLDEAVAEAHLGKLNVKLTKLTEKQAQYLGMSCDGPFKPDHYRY
For assay [5], the target named is T2, Adenosylhomocysteinase. Description: Inhibition of S-adenosyl-L-homocysteine hydrolase at 50 uM after 10 mins by scintillation counting.
Target sequence in this assay (P23526 2-432 limits assumed): as above

Bounds are passed on as bounds.

Adenosylhomocysteinase (Plasmodium falciparum 3D7, UniProt P50250), sequence (P50250 whole entry): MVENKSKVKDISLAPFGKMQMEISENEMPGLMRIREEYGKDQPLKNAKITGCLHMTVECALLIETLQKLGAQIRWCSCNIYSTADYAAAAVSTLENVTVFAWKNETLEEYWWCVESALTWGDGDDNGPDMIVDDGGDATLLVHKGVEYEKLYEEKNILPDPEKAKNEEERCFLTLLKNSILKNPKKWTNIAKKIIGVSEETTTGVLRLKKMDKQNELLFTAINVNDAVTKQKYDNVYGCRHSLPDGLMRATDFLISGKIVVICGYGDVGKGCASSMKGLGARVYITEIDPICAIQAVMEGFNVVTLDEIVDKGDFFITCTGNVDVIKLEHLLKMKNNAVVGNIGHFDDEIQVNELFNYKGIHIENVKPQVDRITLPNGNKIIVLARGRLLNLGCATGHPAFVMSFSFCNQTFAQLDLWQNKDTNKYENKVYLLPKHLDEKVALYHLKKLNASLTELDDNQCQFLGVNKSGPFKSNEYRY

`Nc1ncnc2c1ncn2C[C@@H](O)[C@@H](O)C(=O)O` [ERITADENINE] had an IC50 in assay [1] of 0.03 µM. In assay [2], `Nc1ncnc2c1ncn2Cc1cc(OCC2CCCCC2)cc(O)c1O` yielded an IC50 of 0.4 µM. The same measure, in the same setting: with `COC1=CC(=O)C(O)=C(C[C@@]2(C)[C@@H]3CCC[C@H](COC(=O)CCCCCNC(=O)OC(C)(C)C)[C@@]3(C)CC[C@@H]2C)C1=O` the figure was < 20 µM.

On to `Nc1ncnc2c1ncn2[C@@H]1C[C@H](O)[C@@H](O)[C@H]1O` [NORARISTEROMYCIN], for which, in assay [3], the midpoint of inhibition, the IC50, lay at 1.1 µM.

For the compound `Nc1ncnc2c1ncn2Cc1cc(O)c(O)c(OCc2ccccc2)c1`, the values for the inhibition in assay [4] and in assay [5] were 12% and 70%, respectively. For `Nc1ncnc2c1ncn2Cc1cc(O)c(O)c(OCC2CCCCC2)c1` the same measures were 17% and 74%. For `CCCCCOc1cc(Cn2cnc3c(N)ncnc32)cc(O)c1O` the same measures were 12% and 47%.

`C=C1[C@H](OC(=O)CCCCCNC(=O)OC(C)(C)C)CC[C@H]2[C@](C)(CC3=C(Cl)C(=O)C=C(OC)C3=O)[C@@H](C)CC[C@]12C`: in assay [2], the 50% inhibitory concentration (IC50) was > 250 µM. Same read-out and setting: with `C=C1CCC[C@H]2[C@](C)(CC3=C(O)C(=O)C=C(OC)C3=O)[C@@H](C)CC[C@]12C` [ILIMAQUINONE] the figure was 40 µM.

The values are drawn from ChEMBL document CHEMBL1157005, “A new structural class of S-adenosylhomocysteine hydrolase inhibitors” (Bioorg Med Chem, 2009).
